Data as given in the supplement of paper PMC10307832.

What was measured:
Test in all cases: relative viability (nuclei count vs DMSO), 5 days (fraction); higher = more cells survive
[1] = compound: NS(=O)(=O)OC[C@@H]1C[C@@H](n2ccc3c(N[C@H]4CCc5ccccc54)ncnc32)C[C@@H]1O [MLN4924] + CC(C)C[C@H](NC(=O)[C@H](Cc1ccccc1)NC(=O)c1cnccn1)B(O)O [Bortezomib] (partner 0.002 µM)
In short: (§1)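 Five library-drug doses in √10 steps were combined with a fixed anchor-drug dose, or a single drug was given alone, by pin tool to lung cancer cell lines in 1536-well plates the day after seeding. Nuclei were stained and counted after 5 days. Relative viability is the nuclei count in treated wells over that in vehicle wells, taken as the median of duplicate plates.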

[2] = compound: CC[C@H](C)N1C=C(C2=C(C=C(C=C21)C3=CN=C(C=C3)N4CCNCC4)C(=O)NCC5=C(C=C(NC5=O)C)C)C [GSK126] + Nc1nc2[nH]cc(CCc3ccc(C(=O)N[C@@H](CCC(=O)O)C(=O)O)cc3)c2c(=O)[nH]1 [Pemetrexed] (partner 0.2 µM)
In short: as §1

[3] = compound: NS(=O)(=O)OC[C@@H]1C[C@@H](n2ccc3c(N[C@H]4CCc5ccccc54)ncnc32)C[C@@H]1O [MLN4924] + CS(=O)(=O)CCNCc1ccc(-c2ccc3ncnc(Nc4ccc(OCc5cccc(F)c5)c(Cl)c4)c3c2)o1 [Lapatinib] (partner 2 µM)
In short: as §1

[4] = compound: NS(=O)(=O)OC[C@@H]1C[C@@H](n2ccc3c(N[C@H]4CCc5ccccc54)ncnc32)C[C@@H]1O [MLN4924] + Cc1cc(Nc2cc(N3CCN(C)CC3)nc(Sc3ccc(NC(=O)C4CC4)cc3)n2)n[nH]1 [Tozasertib] (partner 0.1 µM)
In short: as §1

Row | Cell Line | relative viability ([1]; first compound 0.04 µM) | relative viability ([1]; first compound 0.1265 µM) | relative viability ([1]; first compound 0.4 µM) | relative viability ([1]; first compound 1.265 µM) | relative viability ([1]; first compound 4 µM) | relative viability ([2]; first compound 0.08 µM) | relative viability ([2]; first compound 0.253 µM) | relative viability ([2]; first compound 0.8 µM) | relative viability ([2]; first compound 2.53 µM) | relative viability ([2]; first compound 8 µM) | relative viability ([3]; first compound 0.04 µM) | relative viability ([3]; first compound 0.1265 µM) | relative viability ([3]; first compound 0.4 µM) | relative viability ([3]; first compound 1.265 µM) | relative viability ([3]; first compound 4 µM) | relative viability ([4]; first compound 0.04 µM) | relative viability ([4]; first compound 0.1265 µM) | relative viability ([4]; first compound 0.4 µM) | relative viability ([4]; first compound 1.265 µM) | relative viability ([4]; first compound 4 µM)
1 | EPLC-272H | 0.808 | 0.927 | 0.131 | 0.163 | 0.177 | 0.327 | 0.327 | 0.26 | 0.366 | 0.322 | 0.848 | 0.805 | 0.106 | 0.119 | 0.165 | 0.249 | 0.159 | 0.0675 | 0.132 | 0.133
2 | NCI-H647 | 0.583 | 0.425 | 0.149 | 0.0614 | 0.0695 | 0.236 | 0.197 | 0.188 | 0.163 | 0.19 | 0.817 | 0.539 | 0.0888 | 0.0473 | 0.0818 | 0.281 | 0.181 | 0.149 | 0.0334 | 0.0369
3 | NCI-H1792 | 0.938 | 1 | 1.09 | 0.663 | 0.425 | 0.89 | 0.727 | 0.806 | 0.698 | 0.818 | 0.806 | 0.599 | 0.484 | 0.182 | 0.175 |  |  |  |  | 
4 | NCI-H2009 | 0.889 | 0.275 | 0.27 | 0.079 | 0.0747 | 1.11 | 1.03 | 1 | 0.982 | 1.06 | 0.437 | 0.261 | 0.237 | 0.087 | 0.111 | 0.724 | 0.433 | 0.257 | 0.126 | 0.0886
5 | NCI-H2405 | 0.935 | 0.957 | 0.639 | 0.266 | 0.283 | 1.01 | 0.993 | 0.994 | 1.09 | 0.94 | 1.26 | 1.05 | 0.511 | 0.192 | 0.195 | 0.802 | 0.644 | 0.484 | 0.231 | 0.266
6 | NCI-H1563 | 1.35 | 1.03 | 0.617 | 0.474 | 0.59 | 0.848 | 0.808 | 0.772 | 0.579 | 0.754 | 1.38 | 0.759 | 0.627 | 0.485 | 0.61 |  |  |  |  | 
7 | NCI-H322M | 1.24 | 1.36 | 1.2 | 0.302 | 0.463 | 0.543 | 0.621 | 0.615 | 0.648 | 0.641 | 0.796 | 1.01 | 1.19 | 0.301 | 0.285 | 0.479 | 0.537 | 0.434 | 0.26 | 0.325
8 | NCI-H2085 | 1.09 | 1.09 | 1.1 | 0.76 | 0.648 | 1.03 | 0.874 | 0.894 | 0.854 | 0.978 | 0.812 | 0.89 | 0.465 | 0.313 | 0.283 | 0.855 | 0.894 | 0.827 | 0.78 | 0.48
9 | PC-3 [JPC-3] | 0.857 | 0.819 | 0.573 | 0.328 | 0.282 | 1.15 | 1.04 | 1.08 | 1.22 | 1.08 | 0.478 | 0.51 | 0.277 | 0.261 | 0.262 | 0.903 | 0.785 | 0.652 | 0.366 | 0.275
10 | NCI-H1355 | 1.1 | 1.23 | 1.12 | 0.54 | 0.178 | 1.15 | 1.12 | 0.996 | 1.03 | 1.06 | 0.952 | 1.02 | 0.64 | 0.181 | 0.166 | 0.549 | 0.553 | 0.576 | 0.3 | 0.204
11 | NCI-H1650 | 0.226 | 0.194 | 0.172 | 0.182 | 0.177 | 0.393 | 0.437 | 0.39 | 0.302 | 0.344 | 0.385 | 0.261 | 0.182 | 0.149 | 0.185 | 0.319 | 0.299 | 0.341 | 0.203 | 0.164
12 | NCI-H838 | 0.807 | 0.456 | 0.315 | 0.0967 | 0.122 | 0.245 | 0.231 | 0.229 | 0.239 | 0.24 | 0.754 | 0.273 | 0.257 | 0.126 | 0.148 | 0.275 | 0.288 | 0.204 | 0.123 | 0.118
13 | NCI-H1755 | 0.898 | 0.743 | 0.443 | 0.21 | 0.166 | 0.401 | 0.483 | 0.402 | 0.403 | 0.36 | 0.933 | 1.03 | 0.386 | 0.181 | 0.165 | 0.529 | 0.411 | 0.291 | 0.208 | 0.209
14 | NCI-H1651 | 0.936 | 0.99 | 0.966 | 0.498 | 0.181 | 0.651 | 0.594 | 0.566 | 0.67 | 0.636 | 0.911 | 0.776 | 0.281 | 0.138 | 0.116 | 0.759 | 0.782 | 0.524 | 0.321 | 0.133
15 | NCI-H650 | 0.439 | 0.456 | 0.233 | 0.179 | 0.202 | 1.09 | 0.825 | 0.935 | 0.903 | 1.24 | 0.492 | 0.543 | 0.26 | 0.166 | 0.169 | 0.584 | 0.356 | 0.307 | 0.161 | 0.187
16 | HCC-366 | 1.04 | 1.01 | 0.911 | 0.293 | 0.0253 | 0.179 | 0.161 | 0.14 | 0.149 | 0.158 | 0.788 | 0.479 | 0.037 | 0.0233 | 0.0288 | 0.151 | 0.173 | 0.159 | 0.0404 | 0.0333
